Laboratory results from patent US6858591B2, “Antibiotic AA 896 analogs” (Wyeth Holdings Corporation, priority 2001, dated 2005).
Converted amounts (≈) assume the structure as drawn. Where two headings read alike, the source gives them in different places.

Experiments:
Assay in all cases: In vitro MIC, broth dilution
Type in all cases: cell-based
E. coli GC 4559 = test system: E. coli GC 4559
E. coli GC 4560 = test system: E. coli GC 4560
E. coli GC 3226 = test system: E. coli GC 3226
S. marcescens GC 4077 = test system: S. marcescens GC 4077
C. albicans GC 3066 = test system: C. albicans GC 3066
M. morganii GC 4531 = test system: M. morganii GC 4531
K. pneumoniae GC 4534 = test system: K. pneumoniae GC 4534
E. cloacae GC 3783 = test system: E. cloacae GC 3783
P. aeruginosa GC 4532 = test system: P. aeruginosa GC 4532
CNS GC 4537 = test system: CNS GC 4537
Procedure, shortened: (§1)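 Serial antibiotic dilutions (64-0.06 μg/ml) in Mueller-Hinton II were challenged with 5×10^5 CFU/ml bacteria. After an 18 hour ambient-air incubation at 35° C, the lowest concentration inhibiting growth was recorded as MIC, following NCCLS recommendations.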

CNS GC 4538 = test system: CNS GC 4538
Procedure, shortened: as §1

CNS GC 4547 = test system: CNS GC 4547
Procedure, shortened: as §1

E. faecalis GC 2242 = test system: E. faecalis GC 2242
Procedure, shortened: as §1

E. faecalis GC 4555 = test system: E. faecalis GC 4555
Procedure, shortened: as §1

E. faecalis GC 842 = test system: E. faecalis GC 842
Procedure, shortened: as §1

S. aureus GC 1131 = test system: S. aureus GC 1131
Procedure, shortened: as §1

S. aureus GC 2216 = test system: S. aureus GC 2216
Procedure, shortened: as §1

S. aureus GC 4536 = test system: S. aureus GC 4536
Procedure, shortened: as §1

E. coli GC 2203 = test system: E. coli GC 2203
P. aeruginosa GC 2214 = test system: P. aeruginosa GC 2214
[1] = Escherichia coli, GC4559, E. coli GC 4559, read-out: MIC
[2] = Escherichia coli, GC4560, E. coli GC 4560, read-out: MIC
[3] = Escherichia coli, GC3226, E. coli GC 3226, read-out: MIC
[4] = Serratia marcescens, GC4077, S. marcescens GC 4077, read-out: MIC
[5] = Candida albicans, GC3066, C. albicans GC 3066, read-out: MIC
[6] = Morganella morganii, GC4531, M. morganii GC 4531, read-out: MIC
[7] = Klebsiella pneumoniae, GC4534, K. pneumoniae GC 4534, read-out: MIC
[8] = Enterobacter cloacae, GC3783, E. cloacae GC 3783, read-out: MIC
[9] = Pseudomonas aeruginosa, GC4532, P. aeruginosa GC 4532, read-out: MIC
[10] = Enterococcus faecalis, GC2242, E. faecalis GC 2242, read-out: MIC
[11] = Enterococcus faecalis, GC4555, E. faecalis GC 4555, read-out: MIC
[12] = Enterococcus faecalis, GC842, E. faecalis GC 842, read-out: MIC
[13] = Staphylococcus aureus, GC1131, S. aureus GC 1131, read-out: MIC
[14] = Staphylococcus aureus, GC2216, S. aureus GC 2216, read-out: MIC
[15] = Staphylococcus aureus, GC4536, S. aureus GC 4536, read-out: MIC
[16] = Escherichia coli, GC2203, E. coli GC 2203, read-out: MIC
[17] = Pseudomonas aeruginosa, GC2214, P. aeruginosa GC 2214, read-out: MIC

SMILES | MIC (E. coli GC 4559; [1]) [µg/mL] | MIC (E. coli GC 4560; [2]) [µg/mL] | MIC (E. coli GC 3226; [3]) [µg/mL] | MIC (S. marcescens GC 4077; [4]) [µg/mL] | MIC (C. albicans GC 3066; [5]) [µg/mL] | MIC (M. morganii GC 4531; [6]) [µg/mL] | MIC (K. pneumoniae GC 4534; [7]) [µg/mL] | MIC (E. cloacae GC 3783; [8]) [µg/mL] | MIC (P. aeruginosa GC 4532; [9]) [µg/mL] | MIC (CNS GC 4537; CNS GC 4537, read-out: MIC) [µg/mL] | MIC (CNS GC 4538; CNS GC 4538, read-out: MIC) [µg/mL] | MIC (CNS GC 4547; CNS GC 4547, read-out: MIC) [µg/mL] | MIC (E. faecalis GC 2242; [10]) [µg/mL] | MIC (E. faecalis GC 4555; [11]) [µg/mL] | MIC (E. faecalis GC 842; [12]) [µg/mL] | MIC (S. aureus GC 1131; [13]) [µg/mL] | MIC (S. aureus GC 2216; [14]) [µg/mL] | MIC (S. aureus GC 4536; [15]) [µg/mL] | MIC (E. coli GC 2203; [16]) [µg/mL] | MIC (P. aeruginosa GC 2214; [17]) [µg/mL] | also measured
COc1ccc(Cn2c(=O)ccn([C@@H]3OC([C@H](O)[C@H](NCCCNC(=O)[C@@H](N)CCCCN)C(=O)OC(C)(C)C)[C@@H](O[Si](C)(C)C(C)(C)C)[C@H]3O[Si](C)(C)C(C)(C)C)c2=O)cc1 (stereo partly drawn) [Example 19, tert-Butyl (2S,3R)-3-[(3R,4R,5R)-3,4-bis{[tert-butyl(dimethyl)silyl]oxy}-5-(3-(4-methoxybenzyl)-2,4-dioxo-3,4-dihydro-1(2H)-pyrimidinyl)tetrahydro-2-furanyl]-2-[(3-{[(2S)-2,6-diaminohexanoyl]amino}propyl)amino]-3-hydroxypropanoate] | > 128 | 8 (≈ 8.82 µM) | 128 (≈ 141 µM) | 128 (≈ 141 µM) | > 128 | 128 (≈ 141 µM) | > 128 | > 128 | 128 (≈ 141 µM) | 8 (≈ 8.82 µM) | 8 (≈ 8.82 µM) | 16 (≈ 17.6 µM) | 8 (≈ 8.82 µM) | 8 (≈ 8.82 µM) | 8 (≈ 8.82 µM) | 4 (≈ 4.41 µM) | 8 (≈ 8.82 µM) | 8 (≈ 8.82 µM) | 128 (≈ 141 µM) | 128 (≈ 141 µM) | 
COc1ccc(Cn2c(=O)ccn([C@@H]3OC([C@@H](O)[C@H](NCCCNC(=O)[C@@H](N)[C@H](C)O)C(=O)OC(C)(C)C)[C@@H](O[Si](C)(C)C(C)(C)C)[C@H]3O[Si](C)(C)C(C)(C)C)c2=O)cc1 (stereo partly drawn) [Example 9, tert-Butyl (2S,3S)-2-[(3-{[(2S,3S)-2-amino-3-hydroxybutanoyl]amino}propyl)amino]-3-[(3R,4R,5R)-3,4-bis{[tert-butyl(dimethyl)silyl]oxy}-5-(3-(4-methoxybenzyl)-2,4-dioxo-3,4-dihydro-1(2H)-pyrimidinyl)tetrahydro-2-furanyl]-3-hydroxypropanoate] | > 128 | 128 (≈ 145 µM) | > 128 | > 128 | 128 (≈ 145 µM) | > 128 | > 128 | > 128 | 128 (≈ 145 µM) | 128 (≈ 145 µM) | 128 (≈ 145 µM) | 8 (≈ 9.09 µM) | 128 (≈ 145 µM) | 128 (≈ 145 µM) | > 128 | 128 (≈ 145 µM) | 128 (≈ 145 µM) | 128 (≈ 145 µM) | > 128 | 128 (≈ 145 µM) | 
CCOC(=O)C(NCCCNC(=O)[C@@H](NC(=O)OCc1ccccc1)[C@@H](O)C(C)C)[C@@H](O)[C@H]1O[C@@H](n2ccc(=O)[nH]c2=O)[C@H](OC(C)=O)[C@@H]1OC(C)=O (stereo partly drawn) [Example 36, Ethyl (5S)-12-[(R)-[(2R,3R,4R,5R)-3,4-bis(acetyloxy)-5-(2,4-dioxo-3,4-dihydro-1(2H)-pyrimidinyl)tetrahydro-2-furanyl](hydroxy)methyl]-5-[(1S)-1-hydroxy-2-methylpropyl]-3,6-dioxo-1-phenyl-2-oxa-4,7,11-triazatridecan-13-oate] | > 128 | > 128 | > 128 | > 128 | 128 (≈ 171 µM) | 128 (≈ 171 µM) | > 128 | > 128 | 128 (≈ 171 µM) | > 128 | > 128 | > 128 | 128 (≈ 171 µM) | > 128 | > 128 | > 128 | > 128 | > 128 | > 128 | 128 (≈ 171 µM) | 
CCOC(=O)C(NCCCNC(=O)[C@H](CC(C)C)NC(=O)[C@H](CCCNC(=N)N[N+](=O)[O-])NC(=O)N[C@H](C(=O)OCc1ccccc1)C(C)C)[C@@H](OC(C)=O)[C@H]1O[C@@H](n2ccc(=O)[nH]c2=O)[C@H](OC(C)=O)[C@@H]1OC(C)=O (stereo partly drawn) [Example 42, 1-Benzyl 17-ethyl (2S,6S,9S)-16-{(R)-(acetyloxy)[(2R,3R,4R,5R)-3,4-bis(acetyloxy)-5-(2,4-dioxo-3,4-dihydro-1(2H)-pyrimidinyl)tetrahydro-2-furanyl]methyl}-6-(3-{[(2,2-dioxido-2lambda˜1˜-diazanyl)(imino)methyl]amino}propyl)-9-isobutyl-2-isopropyl-4,7,10-trioxo-3,5,8,11,15-pentaazaheptadecane-1,17-dioate] |  |  |  |  |  |  |  |  |  |  |  |  |  |  |  |  |  |  |  |  | MIC (E. coli GC 4559; E. coli GC 4559): >128 µg/mL; MIC (E. coli GC 4560; E. coli GC 4560): 128 µg/mL (≈ 119 µM); MIC (E. coli GC 3226; E. coli GC 3226): 128 µg/mL (≈ 119 µM); MIC (S. marcescens GC 4077; S. marcescens GC 4077): 128 µg/mL (≈ 119 µM); MIC (C. albicans GC 3066; C. albicans GC 3066): 128 µg/mL (≈ 119 µM); MIC (M. morganii GC 4531; M. morganii GC 4531): 128 µg/mL (≈ 119 µM); MIC (K. pneumoniae GC 4534; K. pneumoniae GC 4534): 128 µg/mL (≈ 119 µM); MIC (E. cloacae GC 3783; E. cloacae GC 3783): 128 µg/mL (≈ 119 µM); MIC (P. aeruginosa GC 4532; P. aeruginosa GC 4532): 128 µg/mL (≈ 119 µM); MIC (CNS GC 4537; CNS GC 4537): >128 µg/mL; MIC (CNS GC 4538; CNS GC 4538): >128 µg/mL; MIC (CNS GC 4547; CNS GC 4547): 128 µg/mL (≈ 119 µM); MIC (E. faecalis GC 2242; E. faecalis GC 2242): 64 µg/mL (≈ 59.5 µM); MIC (E. faecalis GC 4555; E. faecalis GC 4555): 128 µg/mL (≈ 119 µM); MIC (E. faecalis GC 842; E. faecalis GC 842): 128 µg/mL (≈ 119 µM); MIC (S. aureus GC 1131; S. aureus GC 1131): >128 µg/mL; MIC (S. aureus GC 2216; S. aureus GC 2216): >128 µg/mL; MIC (S. aureus GC 4536; S. aureus GC 4536): >128 µg/mL; MIC (E. coli GC 2203; E. coli GC 2203): >128 µg/mL; MIC (P. aeruginosa GC 2214; P. aeruginosa GC 2214): 128 µg/mL (≈ 119 µM)
COc1ccc(Cn2c(=O)ccn([C@@H]3OC([C@@H](O)[C@H](NCCCNC(=O)C(NC(=O)OCc4ccccc4)[C@@H](O)C(C)C)C(=O)OC(C)(C)C)[C@@H](O[Si](C)(C)C(C)(C)C)[C@H]3O[Si](C)(C)C(C)(C)C)c2=O)cc1 (stereo in doubt) [Example 3, tert-Butyl (5R,12S)-12-[(S)-[(3R,4R,5R)-3,4-bis{[tert-butyl(dimethyl)silyl]oxy}-5-(3-(4-methoxybenzyl)-2,4-dioxo-3,4-dihydro-1(2H)-pyrimidinyl)tetrahydro-2-furanyl](hydroxy)methyl]-5-[(1S)-1-hydroxy-2-methylpropyl]-3,6-dioxo-1-phenyl-2-oxa-4,7,11-triazatridecan-13-oate] |  |  |  |  |  |  |  |  |  |  |  |  |  |  |  |  |  |  |  |  | MIC (E. coli GC 4559; Escherichia coli, GC4559): > 128 µg/mL; MIC (E. coli GC 4560; Escherichia coli, GC4560): 128 µg/mL (≈ 123 µM); MIC (E. coli GC 3226; Escherichia coli, GC3226): > 128 µg/mL; MIC (S. marcescens GC 4077; Serratia marcescens, GC4077): > 128 µg/mL; MIC (C. albicans GC 3066; Candida albicans, GC3066): 128 µg/mL (≈ 123 µM); MIC (M. morganii GC 4531; Morganella morganii, GC4531): 128 µg/mL (≈ 123 µM); MIC (K. pneumoniae GC 4534; Klebsiella pneumoniae, GC4534): > 128 µg/mL; MIC (E. cloacae GC 3783; Enterobacter cloacae, GC3783): > 128 µg/mL; MIC (P. aeruginosa GC 4532; Pseudomonas aeruginosa, GC4532): 128 µg/mL (≈ 123 µM); MIC (CNS GC 4537): > 128 µg/mL; MIC (CNS GC 4538): > 128 µg/mL; MIC (CNS GC 4547): 128 µg/mL (≈ 123 µM); MIC (E. faecalis GC 2242; Enterococcus faecalis, GC2242): 128 µg/mL (≈ 123 µM); MIC (E. faecalis GC 4555; Enterococcus faecalis, GC4555): 128 µg/mL (≈ 123 µM); MIC (E. faecalis GC 842; Enterococcus faecalis, GC842): > 128 µg/mL; MIC (S. aureus GC 1131; Staphylococcus aureus, GC1131): > 128 µg/mL; MIC (S. aureus GC 2216; Staphylococcus aureus, GC2216): > 128 µg/mL; MIC (S. aureus GC 4536; Staphylococcus aureus, GC4536): > 128 µg/mL; MIC (E. coli GC 2203; Escherichia coli, GC2203): > 128 µg/mL; MIC (P. aeruginosa GC 2214; Pseudomonas aeruginosa, GC2214): 128 µg/mL (≈ 123 µM)
